Consider three compounds from patent publication US9408842B2, “Substituted pyrano and furanoquinolines, their preparation and use as medicaments” (LABORATORIOS DEL DR. ESTEVE S.A., priority 2012, dated 2016).

This test concerns the target T1, σ1-receptor (Cavia porcellus, UniProt Q60492).
T1 construct: Guinea pig brains were homogenized in 10 vols; (w/v) of Tris-HCl 50 mM 0.32 M sucrose, pH 7.4; from tissue; host or cells: guinea pig brain membranes
In words: binding assay for the σ1-receptor, [3H]-(+)-pentazocine, brain membranes. Particulars: guinea pig brain membranes; radioligand [3H]-(+)-pentazocine 5.0 nM; 150 min at 37° C.; nonspecific binding with 1 μM haloperidol. The procedure:
Guinea pig brains were homogenized in 10 vols. (w/v) of Tris-HCl 50 mM 0.32 M sucrose, pH 7.4, with a Kinematica Polytron PT 3000 at 15000 r.p.m. for 30 s. The homogenate was centrifuged at 1000 g for 10 min at 4° C. and the supernatants collected and centrifuged again at 48000 g for 15 min at 4° C. The pellet was resuspended in 10 volumes of Tris-HCl buffer (50 mM, pH 7.4), incubated at 37° C. for 30 min, and centrifuged at 48000 g for 20 min at 4° C. Following this, the pellet was re-suspended in fresh Tris-HCl buffer (50 mM, pH 7.4) and stored on ice until use.
The radioligand used was [^3H]-(+)-pentazocine at 5.0 nM and the final volume was 200 μl. The incubation was initiated with the addition of 100 μl of membrane at a final tissue concentration of approximately 5 mg tissue net weight/mL and the incubation time was 150 m. at 37° C. After incubation, the membranes were collected onto pretreated glass fiber filterplate (MultiScreen-FC, Millipore), with polyethylenimine 0.1%. The filters were washed two times with 200 μl of washing buffer (50 mM Tris Cl, pH=7.4) and then 25 μl of Ecoscint H liquid scintillation cocktail were added. […] Nonspecific binding was determined with 1 μM haloperidol.

Counter-ions that a name gives are not always drawn.

T1 sequence (Q60492 whole entry): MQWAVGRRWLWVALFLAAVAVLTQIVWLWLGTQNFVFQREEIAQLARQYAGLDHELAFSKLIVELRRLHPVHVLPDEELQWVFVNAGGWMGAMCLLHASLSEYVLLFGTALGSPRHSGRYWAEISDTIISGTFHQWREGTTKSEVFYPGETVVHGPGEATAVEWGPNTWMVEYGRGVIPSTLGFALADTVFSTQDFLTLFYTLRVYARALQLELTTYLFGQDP

Consider `NCCCCOc1ccc2c(c1)[C@H]1OCCC[C@H]1[C@@H](C1CCCCC1)N2` (racemic) [Example 111, 4-((4aSR*,5RS*,10bSR*)-5-cyclohexyl-3,4,4a,5,6,10b-hexahydro-2H-pyrano[3,2-c]quinolin-9-yloxy)butan-1-amine hydrochloride], for which the Ki (in general, the equilibrium dissociation constant of an inhibitor or competing ligand from its target) worked out at 0.242 µM. `NCCCOc1ccc2c(c1)[C@H]1OCCC[C@H]1[C@@H](C1CCCCC1)N2` (racemic) [Example 112, 3-((4aSR*,5RS*,10bSR*)-5-cyclohexyl-3,4,4a,5,6,10b-hexahydro-2H-pyrano[3,2-c]quinolin-9-yloxy)propan-1-amine hydrochloride] yielded a Ki of 0.134 µM. `CC(C)CCOc1ccc2c(c1)[C@H]1OCCC[C@H]1[C@@H](C1CCOCC1)N2` [Example 114, (4aS,5R,10bS)-9-(isopentyloxy)-5-(tetrahydro-2H-pyran-4-yl)-3,4,4a,5,6,10b-hexahydro-2H-pyrano[3,2-c]quinoline] showed a Ki of 0.03 µM.
